# According to US20240065303A1, “BITTER MASKING AGENT” (SOLUGEN, INC., priority 2020, published 2024):
# What was measured:
# Assay type in all cases: in vivo
# [1] = blind taste panel: which coffee tasted less bitter; settings: Coffee 2 = 0.5 grams of sodium gluconate added to a 200 g coffee; blind study, panel of 8 individuals; FIG. 1
# Description: The ability of a BMA to reduce the bitterness of a coffee product was investigated. Specifically, varying amounts of a BMA according to aspects described herein was added to coffee samples. In a blind study, a panel of 8 individuals were asked to determine which coffee tasted less bitter. […] Coffee 2 had 0.5 grams of sodium gluconate added to a 200 g coffee.
# In a blind study, a panel of 8 individuals were asked to determine which coffee tasted less bitter. […] Coffee 2 had 0.5 grams of sodium gluconate added to a 200 g coffee.
# [2] = trained-panel taste test of caffeine solutions with and without sodium gluconate (dose response)
# Description: The effect of sodium gluconate on bitterness as a dose response was investigated, In a blind study, six (6) trained panelists conducted a taste test with caffeine samples. […] Caffeine solutions with and without sodium gluconate were prepared on a w/v basis with deionized water. Products were dispensed into lidded soufflé cups with 3-digit codes and evaluated at 21° C. Products were evaluated in duplicate by 6 trained panelists for bitter taste amelioration following the study by Leksrisompong et al. (2012).
# [3] = blind tasting of chocolate chip cookies baked with sugar substitutes, with and without sodium gluconate; settings: ½ tsp of sodium gluconate for every cup of erythritol; 5 people, blind sampled
# Excerpt: The level of sodium gluconate on bitterness reduction in baked goods was investigated. Using a commercially available recipe of chocolate chip cookies, a batch of cookies were baked and blind sampled. The batches were baked using the recipe (i) 2 sticks unsalted butter, at room temperature; (ii) 1 cup erythritol or 1 cup monk fruit sugar substitute or ½ cup stevia sugar substitute; (iii) for samples with sodium gluconate, ½ tsp of sodium gluconate was used for every cup of erythritol; (iv) 1¼ egg; (v) 1⅓ cup almond flour; (vi) 2 tsp vanilla extract; (vii) 1¼ tsp sea salt; (viii) ½ tsp baking powder; (ix) ¼ tsp baking soda; and (x) 1 bag Lily's Sweets Semi-Sweet Chocolate Chips or Milk Chocolate Baking Chips. […] Five (5) people were brought in to compare batches with and without sodium gluconate.
smiles,measurement,setting,value
O=C([O-])[C@H](O)[C@@H](O)[C@H](O)[C@H](O)CO.[Na+] [sodium gluconate],coffee sample chosen by the panel as less bitter,[1],"less bitter, smoother taste"
same,bitterness reduction of caffeine samples,"[2]; caffeine solutions w/v in deionized water, 21° C., 6 trained panelists in duplicate, 0 to 15 point Spectrum intensity scale, FIG. 2",significant bitterness reduction
same,nature of bitterness reduction as a function of masking agent dose,"[2]; percent bitterness vs masking agent dose, FIG. 3",linear
same,participants' preference between cookie batches with and without sodium gluconate,[3],All 5 participants preferred
